Common to all, as to type: in vivo
What all share (conditions): evaluated after 13 days

Experiment [1] relates to Zea mays (ZEAMX). In words: Pre-emergence Test, Zea mays (ZEAMX).
Experiment [2] relates to Zea mays (ZEAMX). In words: Post-emergence Test, Zea mays (ZEAMX). More on the design: key to percentage damage caused to the plant, ZEAMX (five-point scale): 5=81-100%, 4=61-80%, 3=41-60%, 2=21-40%, 1=0-20% damage. In a few lines:
(§1)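 Tested at 1000 g/ha unless otherwise stated. Plants were held at 24/16 °C day/night with a 14 h light period. Percent damage was read at 13 days and reported in five bands.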

In experiment [3] the test system is Echinochloa crus-galli (ECHCG). In words: Post-emergence Test, Echinochloa crus-galli (ECHCG). Also noted: key to percentage damage caused to the plant, ECHCG (five-point scale): 5=81-100%, 4=61-80%, 3=41-60%, 2=21-40%, 1=0-20% damage. In outline: as §1
Experiment [4] deals with Amaranthus retoflexus (AMARE). In words: Pre-emergence Test, Amaranthus retoflexus (AMARE).
Experiment [5] relates to Echinochloa crus-galli (ECHCG). In words: Pre-emergence Test, Echinochloa crus-galli (ECHCG).
The test system of experiment [6] is Setaria faberi (SETFA). In words: Post-emergence Test, Setaria faberi (SETFA). More on the design: key to percentage damage caused to the plant, SETFA (five-point scale): 5=81-100%, 4=61-80%, 3=41-60%, 2=21-40%, 1=0-20% damage. In a few lines: as §1
Experiment [7] relates to Amaranthus palmeri (AMAPA). In words: Post-emergence Test, Amaranthus palmeri (AMAPA). More on the design: key: 5=81-100%, 4=61-80%, 3=41-60%, 2=21-40%, 1=0-20% damage. In a few lines: as §1
For experiment [8], the system named is Setaria faberi (SETFA). In words: Pre-emergence Test, Setaria faberi (SETFA).
Experiment [9] relates to Ipomoea hederacea (IPOHE). In words: Post-emergence Test, Ipomoea hederacea (IPOHE). More on the design: key to percentage damage caused to the plant, IPOHE (five-point scale): 5=81-100%, 4=61-80%, 3=41-60%, 2=21-40%, 1=0-20% damage. In outline:
as §1

The test system of experiment [10] is Amaranthus palmeri (AMAPA). In words: Pre-emergence Test, Amaranthus palmeri (AMAPA).
The subject of experiment [11] is Ipomoea hederacea (IPOHE). In words: Pre-emergence Test, Ipomoea hederacea (IPOHE).
The test system of experiment [12] is Amaranthus retoflexus (AMARE). In words: Post-emergence Test, Amaranthus retoflexus (AMARE). More on the design: key to percentage damage caused to the plant, AMARE (five-point scale): 5=81-100%, 4=61-80%, 3=41-60%, 2=21-40%, 1=0-20% damage. In a few lines: as §1

On to `CCn1c(Cn2nccc2Cl)cc(=O)c(C(=O)O)c1-c1ccc(Cl)c(Cl)c1` [Compound 80, 6-[(5-chloropyrazol-1-yl)methyl]-2-(3,4-dichlorophenyl)-1-ethyl-4-oxo-pyridine-3-carboxylic acid], for which the “Pre-emergence Test ZEAMX, percentage damage caused to the plant (five-point scale)” value in the experiment on Zea mays (ZEAMX) [1] (250 g/Ha (*)) and in the experiment with Zea mays (ZEAMX) [1] (1000 g/ha) was 0 each time. Also, the results for the “percentage damage caused to the plant, ZEAMX (five-point scale)” value in the experiment on Zea mays (ZEAMX) [2] (250 g/Ha) and in the experiment with Zea mays (ZEAMX) [2] (1000 g/ha) were 1 (1=0-20%) and 3 (3=41-60%), respectively. The “percentage damage caused to the plant, ECHCG (five-point scale)” value was 3 (3=41-60%) in experiment [3] (250 g/Ha) and 4 (4=61-80%) in experiment [3] (1000 g/ha). Also, the “Pre-emergence Test AMARE, percentage damage caused to the plant (five-point scale)” value in [4] (250 g/Ha (*)) and in [4] (1000 g/ha) was 0 in each case. Further, the “Pre-emergence Test ECHCG, percentage damage caused to the plant (five-point scale)” value was 3 (3=41-60%) in [5] (250 g/Ha (*)) and 5 (5=81-100%) in experiment [5] (1000 g/ha). Further, the “percentage damage caused to the plant, SETFA (five-point scale)” value was 3 (3=41-60%) in the experiment on Setaria faberi (SETFA) [6] (250 g/Ha) and 4 (4=61-80%) with Setaria faberi (SETFA) [6] (1000 g/ha). Also, the “percentage damage caused to the plant, AMAPA (five-point scale)” value in experiment [7] (250 g/Ha) and in experiment [7] (1000 g/ha) was 2 (2=21-40%) throughout. Further, the “Pre-emergence Test SETFA, percentage damage caused to the plant (five-point scale)” value with Setaria faberi (SETFA) [8] (250 g/Ha (*)) was 4 (4=61-80%); in the experiment with Setaria faberi (SETFA) [8] (1000 g/ha), 5 (5=81-100%). Also, the “percentage damage caused to the plant, IPOHE (five-point scale)” value was 4 (4=61-80%) in experiment [9] (250 g/Ha) and 3 (3=41-60%) in experiment [9] (1000 g/ha). Besides, the “Pre-emergence Test AMAPA, percentage damage caused to the plant (five-point scale)” value in [10] (250 g/Ha (*)) and in experiment [10] (1000 g/ha) was 1 (1=0-20%) in each case. Also, the “Pre-emergence Test IPOHE, percentage damage caused to the plant (five-point scale)” value was 2 (2=21-40%) in experiment [11] (250 g/Ha (*)) and 3 (3=41-60%) in experiment [11] (1000 g/ha). Besides, the “percentage damage caused to the plant, AMARE (five-point scale)” value in [12] (250 g/Ha) and in experiment [12] (1000 g/ha) was 2 (2=21-40%) each time.

In the case of `CCn1c(Cn2nccc2OC(F)F)cc(=O)c(C(=O)O)c1-c1ccc(Cl)c(Cl)c1` [Compound 85, 2-(3,4-dichlorophenyl)-6-[[5-(difluoromethoxy)pyrazol-1-yl]methyl]-1-ethyl-4-oxo-pyridine-3-carboxylic acid], in the experiment on Zea mays (ZEAMX) [1] (250 g/Ha (*)), the “Pre-emergence Test ZEAMX, percentage damage caused to the plant (five-point scale)” value amounted to 0. In addition, in the experiment on Zea mays (ZEAMX) [2] (250 g/Ha), the “percentage damage caused to the plant, ZEAMX (five-point scale)” value is given as 0. Also, the “percentage damage caused to the plant, ECHCG (five-point scale)” value in [3] (250 g/Ha) is given as 2 (2=21-40%). Besides, the “Pre-emergence Test AMARE, percentage damage caused to the plant (five-point scale)” value in [4] (250 g/Ha (*)) is on record as 0. For the same compound, the “Pre-emergence Test ECHCG, percentage damage caused to the plant (five-point scale)” value in experiment [5] (250 g/Ha (*)) is listed as 2 (2=21-40%). The “percentage damage caused to the plant, SETFA (five-point scale)” value in the experiment with Setaria faberi (SETFA) [6] (250 g/Ha) was 4 (4=61-80%). Further, in experiment [7] (250 g/Ha), the “percentage damage caused to the plant, AMAPA (five-point scale)” value came to 0. Besides, the “Pre-emergence Test SETFA, percentage damage caused to the plant (five-point scale)” value in the experiment with Setaria faberi (SETFA) [8] (250 g/Ha (*)) is reported as 3 (3=41-60%). Further, in [9] (250 g/Ha), the “percentage damage caused to the plant, IPOHE (five-point scale)” value was 4 (4=61-80%). Further, in experiment [10] (250 g/Ha (*)), the “Pre-emergence Test AMAPA, percentage damage caused to the plant (five-point scale)” value is 0. Besides, the “Pre-emergence Test IPOHE, percentage damage caused to the plant (five-point scale)” value in [11] (250 g/Ha (*)) is on record as 1 (1=0-20%). Further, the “percentage damage caused to the plant, AMARE (five-point scale)” value in experiment [12] (250 g/Ha) came to 0.

For `CCn1c(Cn2cc(Cl)c(C)n2)cc(=O)c(C(=O)O)c1-c1ccc(Cl)c(Cl)c1` [Compound 89, 6-[(4-chloro-3-methyl-pyrazol-1-yl)methyl]-2-(3,4-dichlorophenyl)-1-ethyl-4-oxo-pyridine-3-carboxylic acid], the “Pre-emergence Test ZEAMX, percentage damage caused to the plant (five-point scale)” value in the experiment with Zea mays (ZEAMX) [1] (250 g/Ha (*)) was 0; in the experiment with Zea mays (ZEAMX) [1] (1000 g/ha) it was 1 (1=0-20%). In addition, the “percentage damage caused to the plant, ZEAMX (five-point scale)” value in the experiment with Zea mays (ZEAMX) [2] (250 g/Ha) is 0; with Zea mays (ZEAMX) [2] (1000 g/ha), 3 (3=41-60%). In addition, the “percentage damage caused to the plant, ECHCG (five-point scale)” value in [3] (250 g/Ha) and in experiment [3] (1000 g/ha) was 4 (4=61-80%) throughout. Moreover, the “Pre-emergence Test AMARE, percentage damage caused to the plant (five-point scale)” value in experiment [4] (250 g/Ha (*)) is reported as 0; in experiment [4] (1000 g/ha), 2 (2=21-40%). Besides, the “Pre-emergence Test ECHCG, percentage damage caused to the plant (five-point scale)” value is recorded as 4 (4=61-80%) in experiment [5] (250 g/Ha (*)) and 5 (5=81-100%) in experiment [5] (1000 g/ha). Further, the figures for the “percentage damage caused to the plant, SETFA (five-point scale)” value with Setaria faberi (SETFA) [6] (250 g/Ha) and in the experiment on Setaria faberi (SETFA) [6] (1000 g/ha) were 2 (2=21-40%) and 4 (4=61-80%), respectively. The results for the “percentage damage caused to the plant, AMAPA (five-point scale)” value in [7] (250 g/Ha) and in experiment [7] (1000 g/ha) were 1 (1=0-20%) and 3 (3=41-60%), respectively. Also, the figures for the “Pre-emergence Test SETFA, percentage damage caused to the plant (five-point scale)” value in the experiment with Setaria faberi (SETFA) [8] (250 g/Ha (*)) and with Setaria faberi (SETFA) [8] (1000 g/ha) were 3 (3=41-60%) and 4 (4=61-80%), respectively. For the same compound, in experiment [9] (1000 g/ha), the “percentage damage caused to the plant, IPOHE (five-point scale)” value is 3 (3=41-60%). The “Pre-emergence Test AMAPA, percentage damage caused to the plant (five-point scale)” value is listed as 0 in [10] (250 g/Ha (*)) and 3 (3=41-60%) in experiment [10] (1000 g/ha). Moreover, the “Pre-emergence Test IPOHE, percentage damage caused to the plant (five-point scale)” value is 3 (3=41-60%) in [11] (250 g/Ha (*)) and 4 (4=61-80%) in experiment [11] (1000 g/ha). In addition, the “percentage damage caused to the plant, AMARE (five-point scale)” value in experiment [12] (250 g/Ha) and in experiment [12] (1000 g/ha) was 1 (1=0-20%) each time.

As for `CCn1c(Cn2cc(C)cn2)cc(=O)c(C(=O)O)c1-c1ccc(Cl)c(Cl)c1` [Compound 91, 2-(3,4-dichlorophenyl)-1-ethyl-6-[(4-methylpyrazol-1-yl)methyl]-4-oxo-pyridine-3-carboxylic acid], the “Pre-emergence Test ZEAMX, percentage damage caused to the plant (five-point scale)” value with Zea mays (ZEAMX) [1] (1000 g/ha) is given as 0. Also, the “percentage damage caused to the plant, ZEAMX (five-point scale)” value in the experiment with Zea mays (ZEAMX) [2] (250 g/Ha) and with Zea mays (ZEAMX) [2] (1000 g/ha) was 1 (1=0-20%) throughout. Also, the entries for the “percentage damage caused to the plant, ECHCG (five-point scale)” value in experiment [3] (250 g/Ha) and in experiment [3] (1000 g/ha) were 3 (3=41-60%) and 1 (1=0-20%), respectively. The “Pre-emergence Test AMARE, percentage damage caused to the plant (five-point scale)” value in [4] (1000 g/ha) was 1 (1=0-20%). The “Pre-emergence Test ECHCG, percentage damage caused to the plant (five-point scale)” value in experiment [5] (1000 g/ha) was 0. For the same compound, the figures for the “percentage damage caused to the plant, SETFA (five-point scale)” value with Setaria faberi (SETFA) [6] (250 g/Ha) and with Setaria faberi (SETFA) [6] (1000 g/ha) were 0 and 1 (1=0-20%), respectively. The “percentage damage caused to the plant, AMAPA (five-point scale)” value in [7] (250 g/Ha) is 1 (1=0-20%); in experiment [7] (1000 g/ha) it was 4 (4=61-80%). In the experiment with Setaria faberi (SETFA) [8] (1000 g/ha), the “Pre-emergence Test SETFA, percentage damage caused to the plant (five-point scale)” value was 0. Also, the “percentage damage caused to the plant, IPOHE (five-point scale)” value was 0 in experiment [9] (250 g/Ha) and 3 (3=41-60%) in experiment [9] (1000 g/ha). For the same compound, in experiment [10] (1000 g/ha), the “Pre-emergence Test AMAPA, percentage damage caused to the plant (five-point scale)” value is recorded as 1 (1=0-20%). Also, the “Pre-emergence Test IPOHE, percentage damage caused to the plant (five-point scale)” value in experiment [11] (1000 g/ha) amounted to 0. For the same compound, the figures for the “percentage damage caused to the plant, AMARE (five-point scale)” value in [12] (250 g/Ha) and in experiment [12] (1000 g/ha) were 1 (1=0-20%) and 2 (2=21-40%), respectively.

Source of the values: patent US20250098679A1, “HERBICIDAL PYRIDONE DERIVATIVES” (SYNGENTA CROP PROTECTION AG, priority 2021, published 2025).
